# According to PMC7707092, “Discovery and characterization of ORM‐11372, a novel inhibitor of the sodium‐calcium exchanger with positive inotropic activity” (British Journal of Pharmacology, 2020):
# Molecular target: T1, L‐type Ca^2+ channel current (I CaL) (Rattus norvegicus, UniProt P22002)
# T1 construct: the inward calcium current (ICaL) in isolated rat cardiomyocytes; endogenous in cells; host or cells: freshly isolated left ventricular cardiomyocytes of male Wistar rats
# Assay: L‐type calcium current (I CaL), patch‐clamp in rat ventricular myocytes
# Assay type: cell-based
# Settings: for effect on calcium current (ICaL) at various test potentials: rat cardiomyocytes; for inhibition at 10 µM: rat ventricular CMs
# Excerpt: Manual patch‐clamp recordings of membrane currents (I NCX, L‐type Ca^2+ channel current [I CaL], human cardiac sodium 1.5 current [I Na], and I hERG) were undertaken using either an Axopatch 200B or Axopatch ID amplifier (Molecular Devices, USA), using the whole‐cell configuration. Cells were at least initially (except when recording I Na) perfused with an extracellular solution consisting of (in mM) 143 NaCl, 4 KCl, 1.8 CaCl2, 1.2 MgCl2, 5 glucose, and 10 HEPES (pH 7.4 with NaOH; osmolarity adjusted to 301 ± 3 mOsm). A slightly modified version was used for the rat ventricular CMs (in mM: 144 NaCl, 0.4 NaH2PO4, 4.0 KCl, 1.8 CaCl2, 0.53 MgSO4, 5.5 glucose, and 5.0 HEPES). Patch pipettes were pulled with a P‐2000 or P‐97 micropipette puller (Sutter Instruments, USA) from borosilicate glass capillaries and had resistances of between 2 and 4 MΩ when filled with any of the pipette solutions (see below). The data were filtered at 1 or 2 kHz and digitized at 10 kHz with acquisition and analysis performed by use of pClamp software (Versions 8–10; Molecular Devices; RRID:SCR_011323).
# I CaL was recorded from hiPSC‐derived CMs (at room temperature, n = 2) and rat ventricular myocytes at 1 μM (n = 3; 5 cells) and at 10 μM (n = 4; 6 cells) in an extracellular solution supplemented with 4‐aminopyridine (3 mM) at 37 °C. The pipette solution used for hiPSC‐derived CMs consisted (in mM) (pH 7.2; osmolarity adjusted to 293 mOsm) 110 KCl, 40 KOH, 20 TEACI, 3 MgATP, 10 EGTA, and 5 HEPES. The composition of the pipette solution used for rat CMs was (in mM) 125 CsCl, 20 TEACI, 5 MgATP, 10 EGTA, and 10 HEPES; the pH was adjusted to 7.2 using CsOH. I CaL was evoked by a 400‐ms depolarization process to 0 mV from a holding potential of −40 mV every 5 s or, in the case of the rat CMs, by 400 ms; depolarizations to potentials ranging from −35 to 55 mV occurred after a prepulse to −40 mV, from the holding potential of −80 mV.
# The effect of ORM-11372 on the inward calcium current (ICaL) in isolated rat cardiomyocytes. ICaL current was evoked by 400 ms-long depolarizing voltage pulses to various test potentials, ranging from -35 mV to 55 mV. The holding potential was -80 mV. A short prepulse to -40 mV served to inactivate the Na+ current (the top part of the panel A). Examples of originals currents are shown in the lower part of panel A, before and after 1 µM ORM-11372 exposure in an isolated rat myocyte. Panels B and C illustrate the current-voltage relation (I-V curves) of ICaL in the absence and presence of 1 µM and 10 µM ORM-11372 (panels B and C, […]
# are means ± standard errors of the means.
# (1 picture or pasted object on this page, not shown here)
# T1 sequence (P22002 whole entry, other chains not shown): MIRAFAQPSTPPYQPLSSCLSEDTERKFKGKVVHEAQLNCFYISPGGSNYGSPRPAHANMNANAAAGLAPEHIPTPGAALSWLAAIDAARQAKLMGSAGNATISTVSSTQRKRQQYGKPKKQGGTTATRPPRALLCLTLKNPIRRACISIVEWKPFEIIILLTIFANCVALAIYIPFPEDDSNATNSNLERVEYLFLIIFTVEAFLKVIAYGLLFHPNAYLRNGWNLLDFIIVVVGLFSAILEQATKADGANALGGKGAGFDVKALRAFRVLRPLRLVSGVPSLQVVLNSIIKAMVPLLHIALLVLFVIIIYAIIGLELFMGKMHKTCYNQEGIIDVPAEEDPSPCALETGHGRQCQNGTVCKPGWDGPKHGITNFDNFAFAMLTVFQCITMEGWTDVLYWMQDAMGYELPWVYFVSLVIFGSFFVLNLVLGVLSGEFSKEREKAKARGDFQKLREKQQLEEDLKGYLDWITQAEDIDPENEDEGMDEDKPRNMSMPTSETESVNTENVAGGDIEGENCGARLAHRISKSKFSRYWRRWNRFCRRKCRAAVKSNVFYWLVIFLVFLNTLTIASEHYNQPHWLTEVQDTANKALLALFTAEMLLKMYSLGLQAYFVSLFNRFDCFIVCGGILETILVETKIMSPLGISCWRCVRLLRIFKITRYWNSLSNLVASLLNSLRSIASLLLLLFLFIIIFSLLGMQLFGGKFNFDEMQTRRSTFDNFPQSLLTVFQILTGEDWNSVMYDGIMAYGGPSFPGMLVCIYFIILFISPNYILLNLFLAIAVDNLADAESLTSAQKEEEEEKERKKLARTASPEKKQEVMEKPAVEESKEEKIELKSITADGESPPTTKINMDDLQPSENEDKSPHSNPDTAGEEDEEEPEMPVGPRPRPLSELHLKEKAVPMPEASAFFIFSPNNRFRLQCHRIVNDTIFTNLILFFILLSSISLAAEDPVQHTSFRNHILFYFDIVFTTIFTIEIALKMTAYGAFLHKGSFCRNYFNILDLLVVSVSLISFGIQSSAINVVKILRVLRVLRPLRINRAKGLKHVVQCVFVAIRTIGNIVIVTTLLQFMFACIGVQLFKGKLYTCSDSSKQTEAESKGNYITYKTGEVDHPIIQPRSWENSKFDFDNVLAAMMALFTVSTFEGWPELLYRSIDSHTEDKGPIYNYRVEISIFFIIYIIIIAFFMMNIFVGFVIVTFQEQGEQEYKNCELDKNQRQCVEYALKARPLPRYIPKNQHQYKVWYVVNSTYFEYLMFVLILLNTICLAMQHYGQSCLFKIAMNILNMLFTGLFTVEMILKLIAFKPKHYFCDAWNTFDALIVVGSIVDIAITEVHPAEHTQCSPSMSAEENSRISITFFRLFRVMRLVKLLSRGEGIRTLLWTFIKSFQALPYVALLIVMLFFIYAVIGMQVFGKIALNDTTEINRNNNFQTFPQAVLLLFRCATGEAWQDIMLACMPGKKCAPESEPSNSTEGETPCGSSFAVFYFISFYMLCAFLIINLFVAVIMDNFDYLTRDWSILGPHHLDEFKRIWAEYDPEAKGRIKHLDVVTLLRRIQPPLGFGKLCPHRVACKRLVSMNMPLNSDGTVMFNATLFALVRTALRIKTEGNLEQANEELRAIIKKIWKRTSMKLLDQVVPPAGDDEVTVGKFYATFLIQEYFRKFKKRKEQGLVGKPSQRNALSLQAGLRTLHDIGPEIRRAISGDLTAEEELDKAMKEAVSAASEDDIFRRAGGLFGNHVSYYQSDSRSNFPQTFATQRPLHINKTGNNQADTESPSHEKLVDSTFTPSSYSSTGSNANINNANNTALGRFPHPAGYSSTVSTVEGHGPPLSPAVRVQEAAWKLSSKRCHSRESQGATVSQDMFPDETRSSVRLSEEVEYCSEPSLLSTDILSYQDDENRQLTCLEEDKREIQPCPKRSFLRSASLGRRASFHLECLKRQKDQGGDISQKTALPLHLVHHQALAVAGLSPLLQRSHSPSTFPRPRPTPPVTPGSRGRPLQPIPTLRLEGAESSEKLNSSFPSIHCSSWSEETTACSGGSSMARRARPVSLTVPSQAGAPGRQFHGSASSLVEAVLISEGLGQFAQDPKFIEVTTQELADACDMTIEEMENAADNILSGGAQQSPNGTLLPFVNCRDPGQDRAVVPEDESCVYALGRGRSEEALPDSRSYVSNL
# T1 sequence (P54290 25-1091 partner, other chains not shown): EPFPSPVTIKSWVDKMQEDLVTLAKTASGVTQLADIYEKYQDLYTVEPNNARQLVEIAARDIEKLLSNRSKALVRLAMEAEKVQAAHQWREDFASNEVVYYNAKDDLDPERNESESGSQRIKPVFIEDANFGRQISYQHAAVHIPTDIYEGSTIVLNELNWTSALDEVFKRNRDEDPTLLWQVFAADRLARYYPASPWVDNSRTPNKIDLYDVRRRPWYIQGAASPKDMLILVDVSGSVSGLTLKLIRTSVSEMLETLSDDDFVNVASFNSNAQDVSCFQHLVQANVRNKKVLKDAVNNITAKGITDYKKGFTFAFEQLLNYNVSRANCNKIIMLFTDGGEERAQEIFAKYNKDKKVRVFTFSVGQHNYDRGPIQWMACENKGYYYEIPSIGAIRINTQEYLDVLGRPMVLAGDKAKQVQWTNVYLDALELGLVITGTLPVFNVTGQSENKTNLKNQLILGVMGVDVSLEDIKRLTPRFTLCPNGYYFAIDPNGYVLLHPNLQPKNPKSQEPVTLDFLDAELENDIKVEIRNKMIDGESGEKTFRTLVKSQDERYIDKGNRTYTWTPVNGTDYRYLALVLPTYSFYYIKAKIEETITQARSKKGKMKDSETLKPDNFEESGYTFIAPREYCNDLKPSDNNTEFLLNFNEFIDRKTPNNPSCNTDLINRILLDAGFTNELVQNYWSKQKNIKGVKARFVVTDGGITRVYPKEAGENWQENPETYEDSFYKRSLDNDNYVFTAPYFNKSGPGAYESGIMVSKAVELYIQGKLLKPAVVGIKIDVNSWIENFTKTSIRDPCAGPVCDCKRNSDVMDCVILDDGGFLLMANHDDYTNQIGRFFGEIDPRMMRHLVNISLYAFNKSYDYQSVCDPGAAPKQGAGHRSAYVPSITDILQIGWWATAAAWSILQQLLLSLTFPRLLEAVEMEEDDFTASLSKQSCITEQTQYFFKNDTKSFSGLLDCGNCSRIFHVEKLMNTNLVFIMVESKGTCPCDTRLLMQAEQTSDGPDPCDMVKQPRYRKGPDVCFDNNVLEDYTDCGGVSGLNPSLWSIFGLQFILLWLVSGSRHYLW
smiles,measurement,setting,value
Nc1cccc(-c2ccc(CNc3ccc(F)cc3)o2)c1 [ORM‐11372],effect on calcium current (ICaL) at various test potentials,"1 µM, n=3, 5 cells",did not change
same,"L-type calcium current amplitude, MEAN","1 µM, test potential 0 mV, 5 cells, control -1375.4",-1268.0 pA
same,"L-type calcium current amplitude, MEAN","1 µM, test potential 5 mV, 5 cells, control -1319.9",-1233.1 pA
same,"L-type calcium current amplitude, MEAN","1 µM, test potential 10 mV, 5 cells, control -1195.5",-1106.0 pA
same,"L-type calcium current amplitude, MEAN","1 µM, test potential 15 mV, 5 cells, control -1031.3",-942.5 pA
same,"L-type calcium current amplitude, MEAN","1 µM, test potential 20 mV, 5 cells, control -839.7",-771.6 pA
same,"L-type calcium current amplitude, MEAN","1 µM, test potential 25 mV, 5 cells, control -655.3",-598.7 pA
same,"L-type calcium current amplitude, MEAN","1 µM, test potential 30 mV, 5 cells, control -482.4",-440.5 pA
same,"L-type calcium current amplitude, MEAN","1 µM, test potential 35 mV, 5 cells, control -321.0",-290.5 pA
same,"L-type calcium current amplitude, MEAN","1 µM, test potential 40 mV, 5 cells, control -184.5",-165.5 pA
same,"L-type calcium current amplitude, MEAN","1 µM, test potential 45 mV, 5 cells, control -86.9",-75.9 pA
same,"L-type calcium current amplitude, MEAN","1 µM, test potential 50 mV, 4 cells, control -2.1",-6.3 pA
same,"L-type calcium current amplitude, MEAN","1 µM, test potential 55 mV, 4 cells, control 73.5",65.1 pA
same,"L-type calcium current amplitude, MEAN","1 µM, test potential -5 mV, 5 cells, control -1356.0",-1228.2 pA
same,"L-type calcium current amplitude, MEAN","1 µM, test potential -10 mV, 5 cells, control -1170.3",-1150.4 pA
same,"L-type calcium current amplitude, MEAN","1 µM, test potential -15 mV, 5 cells, control -958.3",-852.5 pA
same,"L-type calcium current amplitude, MEAN","1 µM, test potential -20 mV, 5 cells, control -659.5",-595.2 pA
same,"L-type calcium current amplitude, MEAN","1 µM, test potential -25 mV, 5 cells, control -416.8",-428.2 pA
same,"L-type calcium current amplitude, MEAN","1 µM, test potential -30 mV, 5 cells, control -247.1",-254.7 pA
same,"L-type calcium current amplitude, MEAN","1 µM, test potential -35 mV, 5 cells, control -143.0",-137.4 pA
same,effect on calcium current (ICaL) at various test potentials,"10 µM, n=4, 6 cells",significantly decreased
same,effect on calcium current (ICaL) at various test potentials,"10 µM, n=4, 6 cells, listed as ORM-11372",moderately decreased
same,"L-type calcium current amplitude, MEAN","10 µM, test potential 0 mV, 6 cells, control -1895.4",-1170.0 pA
same,"L-type calcium current amplitude, MEAN","10 µM, test potential 5 mV, 6 cells, control -1875.0",-1197.8 pA
same,"L-type calcium current amplitude, MEAN","10 µM, test potential 10 mV, 6 cells, control -1771.9",-1118.9 pA
same,"L-type calcium current amplitude, MEAN","10 µM, test potential 15 mV, 6 cells, control -1587.7",-1003.2 pA
same,"L-type calcium current amplitude, MEAN","10 µM, test potential 20 mV, 6 cells, control -1357.7",-873.9 pA
same,"L-type calcium current amplitude, MEAN","10 µM, test potential 25 mV, 6 cells, control -1116.0",-718.1 pA
same,"L-type calcium current amplitude, MEAN","10 µM, test potential 30 mV, 6 cells, control -896.3",-561.5 pA
same,"L-type calcium current amplitude, MEAN","10 µM, test potential 35 mV, 6 cells, control -698.8",-429.4 pA
same,"L-type calcium current amplitude, MEAN","10 µM, test potential 40 mV, 6 cells, control -525.3",-320.9 pA
same,"L-type calcium current amplitude, MEAN","10 µM, test potential 45 mV, 6 cells, control -374.5",-237.0 pA
same,"L-type calcium current amplitude, MEAN","10 µM, test potential 50 mV, 6 cells, control -291.0",-189.1 pA
same,"L-type calcium current amplitude, MEAN","10 µM, test potential 55 mV, 6 cells, control -158.4",-114.5 pA
same,"L-type calcium current amplitude, MEAN","10 µM, test potential -5 mV, 6 cells, control -1762.2",-1043.1 pA
same,"L-type calcium current amplitude, MEAN","10 µM, test potential -10 mV, 6 cells, control -1447.7",-807.4 pA
same,"L-type calcium current amplitude, MEAN","10 µM, test potential -15 mV, 6 cells, control -1127.6",-525.5 pA
same,"L-type calcium current amplitude, MEAN","10 µM, test potential -20 mV, 6 cells, control -920.0",-316.1 pA
same,"L-type calcium current amplitude, MEAN","10 µM, test potential -25 mV, 6 cells, control -667.6",-184.1 pA
same,"L-type calcium current amplitude, MEAN","10 µM, test potential -30 mV, 6 cells, control -368.9",-115.9 pA
same,"L-type calcium current amplitude, MEAN","10 µM, test potential -35 mV, 6 cells, control -156.2",-64.1 pA
same,inhibition at 1 µM,"rat CMs, 1 μM, 0 mV, read-out: inhibition of inward I CaL",7.8%
same,inhibition at 10 µM,test potentials 0 to 40 mV,36 to 39%
same,inhibition at 10 µM,test potentials −35 to −20 mV,59 to 69%
